{
  "source": "patent US10942159B2",
  "about": "“Product sustainability scorecard” (Symrise AG, priority 2016, dated 2021)",
  "key": {"[1]": {"assay": "Product Sustainability Scorecard: process safety with regard to ecological toxicity (Product EcoTox score from GHS H-phrases and supplier score)", "settings": "consolidated scorecard score, normalized scale 0 to 100 without dimension", "source_text": "(§1) Hazard statements form part of the ‘Globally Harmonized System of Classification and Labelling of Chemicals’ (GHS). They are intended to form a set of standardized phrases about the hazards of chemical substances and mixtures.\n(§2) H200: Physical Hazards (=Toxicity and Eco Toxicity)\nH400: Environmental Hazards (=Eco Toxicity)\n(§3) Scheme 4 and 5: Scoring • STEP 1 Evaluation of the ‘(Eco) Toxicity Material Score’ and ‘Critical By-Product Score’ of each reactant and its potential by-products based on the safety according to material properties:\n(§4) • STEP 2 Evaluation of the ‘(Eco) Tox Supplier Score’ of each reactant based on process safety according to chemical handling (see appendix for further information):\n(§5) • STEP 3 Calculation of the overall ‘(Eco) Tox Score’ of each reactant and the final product. […] If the supplier score is better, it outweighs the material score—following the assumption that a safe and controlled production environment is able to avert the risks of hazardous materials: MAX(‘(Eco) Tox Material Score’;‘(Eco) Tox Supplier Score’)=(Eco) Tox Score • (ii) Composed products: For composed products the (Eco) Tox Score combines the hazard and supplier information of the composed product itself (calculated as above) with the (Eco) Tox Score of its reactants. […]"}, "[2]": {"assay": "Product Sustainability Scorecard: process safety with regard to human toxicity (Product Tox score from GHS H-phrases and supplier score)", "settings": "consolidated scorecard score, normalized scale 0 to 100 without dimension", "source_text": "as §1, §2\nH300: Health Hazards (=Toxicity)\nas §3, §4, §5\nThe score for the overall human toxicity S(HTOX) is calculated according to the following equation (4): S(HTOX)=⅔*MAX(Ma;Pa)+⅓*(Mb*Cb)+ . . . […]"}, "[3]": {"assay": "Product Sustainability Scorecard: biodegradability score according to OECD Method 301/302", "settings": "consolidated scorecard score, scale 0 to 100; score equals % biodegradation after 28-day OECD 301 test", "description": "Biodegradation is one of the most important factors in assessing the environmental fate of chemicals. Biodegradation is the chemical dissolution of materials by bacteria, fungi, or other biological means. Biodegradability is evaluated according to the OECD Method 301/302 or equivalent. The tests of the OECD test series 301 (A-F) verify whether a substance is able for complete biodegradation under aerobic conditions. Different test methods are available for well or poorly soluble as well as volatile substances. The test usually takes 28 days. Test items must reach 60% biodegradation within 10 days to be classified as ‘ready biodegradable’.\nScheme 1: Scoring • STEP 1 Evaluation of the “Biodegradability Score” of the fragrance raw material based on the following scoring system\nThe score for biodegradability of the compound or the compounds is evaluated according to OECD Method 301/302 or equivalent."}},
  "data": [
    {"substance": "44_Dihydro Myrcenol [44DHM]", "values": [
      {"measurement": "Product EcoTox", "setting": "[1]", "result": 87.73},
      {"measurement": "Product Tox", "setting": "[2]", "result": 80.38},
      {"measurement": "Biodegradability", "setting": "[3]", "result": 100.00}
    ]}
  ]
}
